Source: publication PMC6030096, “Synergy of Physico-chemical and Biological Experiments for Developing a Cyclooxygenase-2 Inhibitor” (Scientific Reports, 2018)

What was measured:
[1] = molecular target: T1, COX-1 (Homo sapiens, UniProt P23219); assay: Human whole blood assay for COX-1 (A23187 stimulated TxB2); format: cell-based; settings: final conc 1 µM, A23187 50 µM
T1 construct: endogenous in cells; host or cells: human whole blood (heparinized, venipuncture)
Excerpt: (§1) The use of human blood for the whole blood assay was duly approved by the institutional ethical committee of the University for human subjects. Production of prostaglandin PGE2 during lipopolysaccharide (LPS) stimulated whole blood was used to quantify COX-2 inhibitory activity whereas calcium ionophore (A23187) stimulated thromboxane (TxB2) production was used to measure COX-1 inhibitory activity of the compounds.
Approval for the use of human blood was taken from the institutional ethical committee of Guru Nanak Dev University Amritsar and informed consent was obtained from the subject[32],[33]. All experiments were performed in accordance with the relevant guidelines and regulations. By venipuncture, the blood sample was collected in heparinized tubes. […] Each sample in duplicate was assayed for TxB2 (the breakdown product of TxA2) using TXB2 Express ELISA kit (Cayman Chemicals, Ann Arbor, MI) by the reported protocol.

[2] = molecular target: T2, COX-2 (Homo sapiens, UniProt P35354); assay: COX-2 enzyme immunoassay (Cayman inhibitor screening kit); format: biochemical; design: purchased Cayman Chemical Co. 560131; settings: for IC50: enzyme immunoassay, average of three experiments; for Selectivity index: SI = IC50 (COX-1)/ IC50 (COX-2)
T2 sequence (P35354 18-604): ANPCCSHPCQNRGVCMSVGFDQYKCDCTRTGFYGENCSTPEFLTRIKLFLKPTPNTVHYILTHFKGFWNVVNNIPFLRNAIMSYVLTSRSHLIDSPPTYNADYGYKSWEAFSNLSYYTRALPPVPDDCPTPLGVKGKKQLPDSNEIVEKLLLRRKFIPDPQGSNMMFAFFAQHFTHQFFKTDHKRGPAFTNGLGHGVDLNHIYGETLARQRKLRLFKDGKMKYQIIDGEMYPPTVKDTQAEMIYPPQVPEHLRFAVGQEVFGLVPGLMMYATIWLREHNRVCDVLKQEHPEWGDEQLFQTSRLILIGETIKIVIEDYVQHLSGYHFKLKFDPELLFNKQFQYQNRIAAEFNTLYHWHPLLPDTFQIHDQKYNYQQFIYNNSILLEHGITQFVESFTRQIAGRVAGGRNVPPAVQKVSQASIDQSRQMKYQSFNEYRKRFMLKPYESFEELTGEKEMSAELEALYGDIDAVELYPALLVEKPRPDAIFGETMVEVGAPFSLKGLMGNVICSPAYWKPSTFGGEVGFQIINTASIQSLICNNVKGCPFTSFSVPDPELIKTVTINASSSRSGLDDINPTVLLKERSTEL
Procedure: Principally, the catalytic activity of COX-1/2 is slowed down in the presence of its inhibitor and quantitatively, it is inversely proportional to the amount of prostaglandin produced in the presence of inhibitor.
The enzyme inhibition screening assay kits for COX-1/2 and 5-LOX with item no. […] The 100% initial activity tubes for the two enzymes contained 10 µL heme and 10 µL of the enzyme in 160 µL reaction buffer. Then 10 µL inhibitor (compound of above mentioned concentrations) was added to the inhibitor tubes for the two enzymes and 10 µL of vehicle (DMSO) was added to 100% initial activity and background tubes. All the tubes were incubated for 10 min at 37 °C and the reaction was started by adding 10 µL arachidonic acid to all the reaction tubes. After incubation of the reaction vials for 2 min at 37 °C, the enzyme catalysis was stopped by adding 30 µL saturated stannous chloride solution to each test tube and solutions were kept at 0–4 °C. For EIA (enzyme immunoassay) procedure: the EIA buffers and assay specific reagents were prepared as written in the manual. In the COX dilutions, two test tubes labelled as BC1 and BC2 were taken to prepare background samples. Each tube contained 990 µL of EIA buffer and 10 µL of background COX-1 for BC1 and 10 µL of background COX-2 for BC2. The samples for 100% initial activity were diluted in three vials labelled IA1, IA2 and IA3 for each enzyme. IA1 contained 990 µL EIA buffer and 10 µL enzyme, IA2 has 950 µL buffer and 50 µL solution of IA1 (1:2000 dilution of original sample) and IA3 carried 500 µL of buffer and 500 µL of IA2 solution (1:4000 dilution of original sample). Each solution was thoroughly mixed. Solutions of IA2 and IA3 were used for the assaying. […] C2 contained 950 µL buffer and 50 µL solution of C1 (1:2000 dilution of original sample) and vial C3 was charged with 500 µL buffer and 500 µL solution from C2 (1: 4000 dilution of original sample). Only C2 and C3 were run in the assay. After all the reaction dilutions, these were then subjected to 96 wells plate. The wells were divided as: 2 blank wells, 2 NSB wells (non-specific binding), 3 B0 wells (maximum binding), one TA well (total activity), 16 wells for standards (S1–S8 in repeat), 2 BC1 and 2 BC2 wells. Compounds (inhibitors) were put in all the other wells. The sequence for the addition of reagents onto the plate was as per the protocol of the assay kit. […] For developing the plate; it was emptied and washed with wash buffer 5 times followed by the addition of 200 µL Ellman’s reagent to each well. 5 µL tracer was added to the TA well. Then the plate was covered and left for 60 mins for development in dark. After the respective time period the cover was removed and the plate was read at 420 nm. %B/Bo (i.e. % sample or maximum bound) value for standards S1-S8 and each sample was determined from the absorbance values obtained according to the calculation given in the protocol. The amount of prostaglandins formed during the enzymatic reaction was calculated from the values of %B/Bo for all the compounds at all concentrations with the help of the standard curve (plotted between %B/Bo of standards and raw data given in the protocol). Then the prostaglandin formed at each concentration of all the compounds and percentage inhibition values were calculated. The graph between percent inhibition of the enzyme and corresponding concentration of the compound provided IC50 values for the compounds.

[3] = molecular target: T2, COX-2; assay: Human whole blood assay for COX-2 (LPS stimulated PGE2); format: cell-based; design: endogenous in cells; host or cells: human whole blood, aspirin-pretreated, LPS-stimulated; settings: final conc 1 µM, LPS 10 µg mL^−1
Procedure: as §1
COX-2 assay was performed by inactivating COX-1 with 50 µL aspirin (10 µg/mL) per 400 µL of blood sample.

T1 sequence (P23219 24-599): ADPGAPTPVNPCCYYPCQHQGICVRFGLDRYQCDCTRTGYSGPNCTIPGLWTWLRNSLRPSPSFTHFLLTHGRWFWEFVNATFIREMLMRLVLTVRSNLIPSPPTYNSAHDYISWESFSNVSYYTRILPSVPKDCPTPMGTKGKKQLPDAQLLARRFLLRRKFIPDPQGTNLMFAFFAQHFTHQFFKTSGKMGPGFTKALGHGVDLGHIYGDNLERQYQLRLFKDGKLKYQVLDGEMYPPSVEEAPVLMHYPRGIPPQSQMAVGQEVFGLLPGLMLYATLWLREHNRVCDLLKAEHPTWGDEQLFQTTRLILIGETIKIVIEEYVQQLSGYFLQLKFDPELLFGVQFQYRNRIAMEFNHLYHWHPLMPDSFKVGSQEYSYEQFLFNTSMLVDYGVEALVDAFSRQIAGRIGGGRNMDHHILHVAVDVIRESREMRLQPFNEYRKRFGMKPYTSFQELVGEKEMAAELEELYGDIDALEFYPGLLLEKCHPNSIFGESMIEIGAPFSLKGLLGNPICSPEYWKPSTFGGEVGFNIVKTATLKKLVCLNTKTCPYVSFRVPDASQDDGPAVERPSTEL

SMILES	Production of TXB2, +Ca^2+ Ionophore [1]	IC50 [2]	Production of PGE2, +LPS [3]	Selectivity index [2]
O=C1Nc2ccccc2C1=Cc1cn(C[C@H](O)Cn2c3ccccc3c(=O)c3ccccc32)c2ccccc12 [(S)-3c]	1.80 ± 0.5 ng/mL	800 ± 75 nM	0.97 ± 0.09 ng/mL	
O=C1NC(=O)C(=Cc2cn(CCCn3c4ccccc4c(=O)c4ccccc43)c3ccccc23)C(=O)N1 [Compound 4a]	1.84 ± 0.11 ng/mL	100 ± 60 nM	1.00 ± 0.13 ng/mL	300
O=C1Nc2ccccc2C1=Cc1cn(CCCn2c3ccccc3c(=O)c3ccccc32)c2ccccc12 [Compound 4c]	1.70 ± 0.3 ng/mL	300 ± 15 nM	1.01 ± 0.14 ng/mL	13.33
